According to publication PMC11790660 (Frontiers in Chemistry, 2025):
Where two headings read alike, the source gives them in different places.

Key:
WI38 normal cells [1] = test: cells; details: Homo sapiens, WI-38, read-out: IC50 WI38
[2] = system: HepG2 cell lines (liver tumor cell); test: cells; details: Homo sapiens, HepG2, 24 h, read-out: IC50 HepG2
[3] = system: HepG2 cell lines (liver tumor cell); details: for IC50: read-out: IC50 HepG2
A549 = test: cells; format: cell-based
HeLa = test: cells; format: cell-based; details: read-out: IC50 against cell proliferation, HeLa
MCF-7 = test: cells; format: cell-based
[4] = system: LO2 cell lines (normal liver cell); details: for IC50: read-out: IC50 LO2
WI38 normal cells [5] = details: for IC50: read-out: IC50 WI38
[6] = system: LO2 cell lines (normal liver cell); test: cells; details: Homo sapiens, L02, 24 h, read-out: IC50 LO2
PI3Kγ = PI3Kγ (Homo sapiens, UniProt P48736); test: In vitro PI3K enzyme inhibitory assay (ADP-Glo), PI3Kγ; format: biochemical; details: read-out: PI3Kγ % inhibition at 10 μM
AKT = test: In vitro AKT enzyme inhibitory assay; format: biochemical
PI3Kβ = PI3Kβ (Homo sapiens, UniProt P42338); test: In vitro PI3K enzyme inhibitory assay (ADP-Glo), PI3Kβ; format: biochemical; details: read-out: PI3Kβ % inhibition at 10 μM
PI3Kα = PI3Kα (Homo sapiens, UniProt P42336); test: In vitro PI3K enzyme inhibitory assay (ADP-Glo), PI3Kα; format: biochemical; details: read-out: PI3Kα % inhibition at 10 μM
[7] = H2S release, methylene blue (MB+) method; format: physicochemical; details: MB+ method with TECP or cysteine; different temperature and pH
[8] = Homo sapiens, A549, read-out: IC50 against cell proliferation, A549
[9] = Homo sapiens, MCF7, read-out: IC50 against cell proliferation, MCF-7
[10] = read-out: IC50 against cell proliferation, A549
[11] = read-out: IC50 against cell proliferation, MCF-7

Chain of PI3Kβ (P42338 whole entry): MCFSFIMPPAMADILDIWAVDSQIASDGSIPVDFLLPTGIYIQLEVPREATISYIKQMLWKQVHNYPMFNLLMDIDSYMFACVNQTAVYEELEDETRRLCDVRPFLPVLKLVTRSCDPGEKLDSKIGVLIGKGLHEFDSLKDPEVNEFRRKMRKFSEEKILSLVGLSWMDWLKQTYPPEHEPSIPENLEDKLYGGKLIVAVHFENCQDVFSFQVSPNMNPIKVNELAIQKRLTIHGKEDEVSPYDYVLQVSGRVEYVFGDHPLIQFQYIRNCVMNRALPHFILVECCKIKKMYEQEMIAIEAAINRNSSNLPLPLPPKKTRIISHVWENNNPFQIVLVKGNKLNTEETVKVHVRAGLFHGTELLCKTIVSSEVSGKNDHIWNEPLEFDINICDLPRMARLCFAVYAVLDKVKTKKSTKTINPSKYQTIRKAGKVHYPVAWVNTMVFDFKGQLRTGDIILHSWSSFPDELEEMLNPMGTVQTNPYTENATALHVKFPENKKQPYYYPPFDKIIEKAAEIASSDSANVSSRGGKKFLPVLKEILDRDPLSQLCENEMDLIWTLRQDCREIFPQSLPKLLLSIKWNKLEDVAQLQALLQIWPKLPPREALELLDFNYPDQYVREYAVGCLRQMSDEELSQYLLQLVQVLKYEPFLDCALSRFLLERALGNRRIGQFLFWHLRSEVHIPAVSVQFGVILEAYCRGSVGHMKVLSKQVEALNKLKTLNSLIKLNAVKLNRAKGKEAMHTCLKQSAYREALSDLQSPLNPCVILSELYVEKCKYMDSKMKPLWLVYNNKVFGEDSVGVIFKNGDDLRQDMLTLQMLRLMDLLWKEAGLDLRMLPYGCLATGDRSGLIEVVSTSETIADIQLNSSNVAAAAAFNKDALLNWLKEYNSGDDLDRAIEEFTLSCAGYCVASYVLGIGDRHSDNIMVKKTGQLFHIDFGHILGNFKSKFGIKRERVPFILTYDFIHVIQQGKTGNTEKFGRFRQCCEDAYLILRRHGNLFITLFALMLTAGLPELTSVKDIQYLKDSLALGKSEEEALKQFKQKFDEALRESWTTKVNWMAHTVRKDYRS
Chain of PI3Kβ (P27986 whole entry partner): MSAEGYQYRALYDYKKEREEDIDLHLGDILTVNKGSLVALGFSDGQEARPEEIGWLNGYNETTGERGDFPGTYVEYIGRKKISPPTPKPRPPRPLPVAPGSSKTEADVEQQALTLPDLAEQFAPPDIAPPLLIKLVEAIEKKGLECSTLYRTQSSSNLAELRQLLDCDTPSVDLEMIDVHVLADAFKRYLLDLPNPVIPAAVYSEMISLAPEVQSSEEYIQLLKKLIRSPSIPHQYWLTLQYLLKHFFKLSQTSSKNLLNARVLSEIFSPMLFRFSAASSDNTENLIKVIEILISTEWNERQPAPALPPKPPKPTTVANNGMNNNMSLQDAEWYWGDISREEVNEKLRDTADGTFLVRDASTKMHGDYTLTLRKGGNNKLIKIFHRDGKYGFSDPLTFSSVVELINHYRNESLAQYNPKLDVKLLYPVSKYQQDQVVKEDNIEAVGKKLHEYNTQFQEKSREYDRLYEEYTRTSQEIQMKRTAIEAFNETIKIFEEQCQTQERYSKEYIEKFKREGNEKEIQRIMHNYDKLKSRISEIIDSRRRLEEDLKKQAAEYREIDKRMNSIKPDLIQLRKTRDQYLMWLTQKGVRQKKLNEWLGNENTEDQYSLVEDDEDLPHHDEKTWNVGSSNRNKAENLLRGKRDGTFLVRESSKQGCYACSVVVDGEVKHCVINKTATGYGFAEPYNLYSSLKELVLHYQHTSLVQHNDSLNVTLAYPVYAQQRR
Chain of PI3Kγ (P48736 whole entry): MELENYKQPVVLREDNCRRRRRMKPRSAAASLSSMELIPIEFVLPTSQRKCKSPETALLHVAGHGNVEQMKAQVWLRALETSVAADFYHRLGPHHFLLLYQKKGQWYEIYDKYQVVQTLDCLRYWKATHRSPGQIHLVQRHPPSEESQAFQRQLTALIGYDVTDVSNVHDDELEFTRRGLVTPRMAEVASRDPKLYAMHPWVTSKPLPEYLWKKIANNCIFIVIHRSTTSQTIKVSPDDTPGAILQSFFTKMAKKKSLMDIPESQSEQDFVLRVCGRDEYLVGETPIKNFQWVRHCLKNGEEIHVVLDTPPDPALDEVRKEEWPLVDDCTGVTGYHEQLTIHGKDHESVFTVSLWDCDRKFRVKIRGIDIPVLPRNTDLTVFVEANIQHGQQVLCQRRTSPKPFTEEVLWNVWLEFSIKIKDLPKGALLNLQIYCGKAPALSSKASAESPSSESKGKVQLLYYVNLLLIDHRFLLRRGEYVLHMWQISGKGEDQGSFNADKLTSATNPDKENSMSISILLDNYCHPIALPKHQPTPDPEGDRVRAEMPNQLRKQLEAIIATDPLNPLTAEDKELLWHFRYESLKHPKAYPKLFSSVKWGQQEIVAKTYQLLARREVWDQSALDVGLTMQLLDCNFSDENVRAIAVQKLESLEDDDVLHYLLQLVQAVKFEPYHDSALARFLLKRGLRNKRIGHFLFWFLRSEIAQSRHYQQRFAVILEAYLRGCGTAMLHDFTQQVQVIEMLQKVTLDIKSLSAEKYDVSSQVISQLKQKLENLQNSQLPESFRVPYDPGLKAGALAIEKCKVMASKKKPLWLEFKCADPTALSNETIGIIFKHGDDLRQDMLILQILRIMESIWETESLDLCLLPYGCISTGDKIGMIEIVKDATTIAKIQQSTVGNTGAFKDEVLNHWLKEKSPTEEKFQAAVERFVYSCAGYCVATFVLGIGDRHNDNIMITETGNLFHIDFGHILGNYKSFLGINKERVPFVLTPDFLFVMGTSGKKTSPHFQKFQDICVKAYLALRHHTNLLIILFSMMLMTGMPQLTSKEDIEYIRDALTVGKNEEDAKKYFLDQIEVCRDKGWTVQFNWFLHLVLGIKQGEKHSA
Chain of PI3Kα (P42336 whole entry): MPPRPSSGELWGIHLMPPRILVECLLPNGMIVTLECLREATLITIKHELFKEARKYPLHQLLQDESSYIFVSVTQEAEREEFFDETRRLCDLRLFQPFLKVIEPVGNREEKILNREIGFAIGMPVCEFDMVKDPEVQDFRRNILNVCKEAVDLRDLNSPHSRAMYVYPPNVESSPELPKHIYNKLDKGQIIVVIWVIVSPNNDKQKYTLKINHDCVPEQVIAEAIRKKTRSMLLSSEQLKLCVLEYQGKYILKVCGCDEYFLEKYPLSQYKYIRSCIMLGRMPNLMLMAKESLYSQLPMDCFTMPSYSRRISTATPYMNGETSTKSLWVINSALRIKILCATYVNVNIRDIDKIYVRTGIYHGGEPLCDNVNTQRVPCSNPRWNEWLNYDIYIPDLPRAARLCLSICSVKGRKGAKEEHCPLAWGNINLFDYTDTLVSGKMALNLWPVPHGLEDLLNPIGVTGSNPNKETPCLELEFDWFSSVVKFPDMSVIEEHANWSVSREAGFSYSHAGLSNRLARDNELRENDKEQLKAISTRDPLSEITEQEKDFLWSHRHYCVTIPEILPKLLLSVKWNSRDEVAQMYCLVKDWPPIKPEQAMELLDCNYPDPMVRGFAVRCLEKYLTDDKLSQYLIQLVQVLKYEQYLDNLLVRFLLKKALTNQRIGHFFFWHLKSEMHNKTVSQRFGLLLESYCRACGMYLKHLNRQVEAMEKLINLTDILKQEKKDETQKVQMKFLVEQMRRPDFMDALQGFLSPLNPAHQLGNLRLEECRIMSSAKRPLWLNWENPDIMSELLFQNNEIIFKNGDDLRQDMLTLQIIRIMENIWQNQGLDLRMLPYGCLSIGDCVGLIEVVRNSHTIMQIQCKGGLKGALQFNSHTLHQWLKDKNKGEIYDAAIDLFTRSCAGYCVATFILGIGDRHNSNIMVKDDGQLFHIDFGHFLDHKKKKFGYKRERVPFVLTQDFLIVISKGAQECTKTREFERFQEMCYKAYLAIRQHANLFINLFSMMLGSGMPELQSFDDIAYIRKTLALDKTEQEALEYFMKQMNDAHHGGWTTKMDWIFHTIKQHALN
Chain of PI3Kα (P27986 whole entry partner): as the sequence (P27986 whole entry partner) above

Row | SMILES | IC50 (WI38 normal cells [1]) [µM] | IC50 [2] [µM] | Toxicity in words, HepG2 [3] | IC50 (A549; [8]) [µM] | IC50 (HeLa; Homo sapiens, HeLa) [µM] | IC50 (MCF-7; [9]) [µM] | Toxicity in words, LO2 [4] | Toxicity in words, WI38 (WI38 normal cells [5]) | IC50 [6] [µM] | inhibition at 10 µM (PI3Kγ) [%] | AKT % inhibition at 10 μM (AKT) [%] | inhibition at 10 µM (PI3Kβ) [%] | inhibition at 10 µM (PI3Kα) [%] | IC50 [3] [µM] | IC50 (A549; [10]) [µM] | IC50 (HeLa) [µM] | IC50 (MCF-7; [11]) [µM] | IC50 [4] [µM] | H2S release amount (in words) [7] | IC50 (WI38 normal cells [5]) [µM]
1 | S=P1(c2ccccc2)NCCCCN1 [Compound S7, 2-phenyl-1,3,2-diazaphosphepane 2-sulfide] | > 200 | > 400 | low cytotoxicity | 730 ± 32.3 | 655 ± 15.3 | 473 ± 4.2 | low cytotoxicity | low cytotoxicity | > 200 |  |  |  |  |  |  |  |  |  |  | 
2 | S=P1(c2ccccc2)NCNCN1 [Compound S9, 2-phenyl-1,3,5,2-triazaphosphinane 2-sulfide] | > 200 | > 400 | low cytotoxicity | 590 ± 27.1 | 730 ± 20.7 | 459 ± 3.7 | low cytotoxicity | low cytotoxicity | > 200 |  |  |  |  |  |  |  |  |  |  | 
3 | Oc1cccc(-c2nc(N3CCOCC3)c3oc4ncccc4c3n2)c1 [PI-103, reference compound] |  |  |  |  |  |  |  |  |  | 12 | 100 | 5 | 100 |  |  |  |  |  |  | 
4 | S=P1(c2ccccc2)NCCCCO1 (stereo not drawn) [Compound S4, 2-phenyl-1,3,2-oxazaphosphepane 2-sulfide] | > 200 | > 400 | low cytotoxicity | 720 ± 22.4 | 836 ± 19.7 | 472 ± 3.3 | low cytotoxicity | low cytotoxicity | > 200 |  |  |  |  |  |  |  |  |  |  | 
5 | Cc1ccc2c(c1)NP(=S)(c1ccccc1)O2 (stereo not drawn) [Compound S14, 5-methyl-2-phenyl-3H benzo [d][1,3,2] oxazaphosphole 2-sulfide] |  |  |  |  |  |  |  |  |  |  |  |  |  | > 400 | 220 ± 20.1 | 530 ± 11.3 | 31 ± 2.5 | > 200 | the highest amount of hydrogen sulfide was released | > 200
6 | S=P1(c2ccccc2)Oc2ccccc2-c2ccccc2O1 [Compound S12, 6-phenyldibenzo [d, f][1,3,2] dioxaphosphepine 6-sulfide] | > 200 | > 400 | low cytotoxicity | 640 ± 15.5 | 703 ± 17.7 | 164 ± 4.1 | low cytotoxicity | low cytotoxicity | > 200 |  |  |  |  |  |  |  |  |  |  | 
7 | S=P1(c2ccccc2)Oc2ccc3cccc4c5cccc6ccc(c(c2c34)c65)O1 [Compound S15, 2-phenylperyleno [1,12-def][1,3,2] dioxaphosphepine 2-sulfide] | > 200 | > 400 |  | 520 ± 22.7 | 733 ± 28.2 | 266 ± 3.5 |  |  | > 200 |  |  |  |  |  |  |  |  |  |  | 
8 | S=P1(c2ccccc2)NCCCCCO1 (stereo not drawn) [Compound S5, 2-phenyl-1,3,2-oxazaphosphocane 2-sulfide] | > 200 | > 400 | low cytotoxicity | 680 ± 20.5 | 622 ± 20.6 | 468 ± 3.4 | low cytotoxicity | low cytotoxicity | > 200 |  |  |  |  |  |  |  |  |  |  | 
9 | S=P1(c2ccccc2)NCCO1 (stereo not drawn) [Compound S2, 2-phenyl-1,3,2-oxazaphospholidine 2-sulfide] | > 200 | > 400 | low cytotoxicity | 650 ± 32.5 | 736 ± 22.1 | 455 ± 3.2 | low cytotoxicity | low cytotoxicity | > 200 |  |  |  |  |  |  |  |  |  |  | 
10 | S=P1(c2ccccc2)OCc2ccccc2CO1 [Compound S13, 3-phenyl-1,5-dihydrobenzo [e] [1,3,2] dioxaphosphepine 3-sulfide] | > 200 | > 400 | low cytotoxicity | 500 ± 18.2 | 633 ± 18.3 | 460 ± 3.5 | low cytotoxicity | low cytotoxicity | > 200 |  |  |  |  |  |  |  |  |  |  | 
11 | S=P1(c2ccccc2)NCCCO1 (stereo not drawn) [Compound S3, 2-phenyl-1,3,2-oxazaphosphinane 2-sulfide] | > 200 | > 400 | low cytotoxicity | 700 ± 32.3 | 826 ± 17.1 | 470 ± 4.1 | low cytotoxicity | low cytotoxicity | > 200 |  |  |  |  |  |  |  |  |  |  | 
12 | S=P1(c2ccccc2)NCCCCCCO1 (stereo not drawn) [Compound S6, 2-phenyl-1,3,2-oxazaphosphonane 2-sulfide] | > 200 | > 400 | low cytotoxicity | 710 ± 22.6 | 645 ± 15.5 | 471 ± 5.4 | low cytotoxicity | low cytotoxicity | > 200 |  |  |  |  |  |  |  |  |  |  | 
13 | S=P1(c2ccccc2)SCCS1 [Compound S10, 2-phenyl-1,3,2-dithiaphospholane 2-sulfide] | > 200 | > 400 | low cytotoxicity | 557 ± 18.5 | 603 ± 20.8 | 455 ± 2.4 | low cytotoxicity | low cytotoxicity | > 200 |  |  |  |  |  |  |  |  |  |  | 
14 | N#Cc1ccc2c(c1)NP(=S)(c1ccccc1)O2 (stereo not drawn) [Compound S16, 2-phenyl-3H-benzo [d][1,3,2] oxazaphosphole-5-carbonitrile 2-sulfide] |  |  |  |  |  |  |  |  |  |  |  |  |  | > 400 | 280 ± 28.3 | 520 ± 20.3 | 28 ± 2.7 | > 200 | the highest amount of hydrogen sulfide was released | > 200
15 | S=P1(c2ccccc2)OCCCCO1 [Compound S8, 2-phenyl-1,3,2-dioxaphosphepane 2-sulfide] |  |  | low cytotoxicity |  |  |  | low cytotoxicity | low cytotoxicity |  |  |  |  |  | > 400 | 803 ± 20.8 | 730 ± 20.5 | 480 ± 3.8 | > 200 |  | > 200
